The values that follow come from US7723523B2, “Tetrahydropyridothiophenes” (4SC AG, priority 2004, dated 2010).

As a reminder, the IC50 is the point on the concentration scale where inhibition reaches its midpoint.

The structures appear in SMILES notation. Bounds are passed on as bounds.

Assay [1] has as its system RKO colon adenocarcinoma cells (RKOp27) arrested by expression of ectopic p27Kip1. The experiment in a line: Alamar Blue cell viability assay on RKOp27 cells arrested by Ponasterone A-induced p27Kip1 (cell cycle specific mode of action). It is filed as cell-based. The conditions noted are these: Homo sapiens, RKOp27, 72 h, cells arrested by p27Kip1 induced with 10 μM Ponasterone A, 72 hours incubation, read-out: IC50 RKO p27 arrested. A digest of the protocol: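 Viability measured by Alamar Blue fluorescence (ex 544, em 590 nm) after 72 h, 37 °C compound exposure in quadruplicate, normalized to untreated cells as 100%. Cells were p27Kip1-arrested RKOp27, induced with 10 μM Ponasterone A at seeding; compound added 24 h later.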
Background: Resazurin is reduced to fluorescent resorufin, in cell work by metabolically active cells.

Assay [2] concerns RKO (RKOp27) human colon adenocarcinoma cells. The experiment in a line: Alamar Blue cell viability assay, anti-proliferative/cytotoxic activity on proliferating RKOp27 cells. The conditions noted are these: absence of Ponasterone A, 72 hours incubation, read-out: IC50 RKO p27 proliferating. Type of assay: cell-based. A digest of the protocol: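 IC50 values come from concentration-effect curves of Alamar Blue fluorescence (544/590 nm), relative to untreated controls set at 100%. Cells were RKOp27, seeded at 4000/well in DMEM with 10% FCS and exposed from 24 h post-seeding for 72 h (37 °C, 5% CO2) to semi-log dilutions, each run in quadruplicate.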

As to `CCOC(=O)N1CCc2c(sc(NC(=O)/C=C/c3ccccc3CC)c2C#N)C1` [Example 82, 3-Cyano-2-[(E)-3-(2-ethyl-phenyl)-allanoylamino]-4,7-dihydro-5H-thieno[2,3-c]pyridine-6-carboxylic acid ethyl ester], the IC50 was at least 100 µM in assay [1] and at most 2 µM in assay [2].
Turning to `COC(=O)COC(=O)N1CCc2c(sc(NC(=O)/C=C/c3ccccc3)c2C#N)C1` [Example 133, 3-Cyano-2-((E)-3-phenyl-allanoylamino)-4,7-dihydro-5H-thieno[2,3-c]pyridine-6-carboxylic acid methoxycarbonylmethyl ester], the IC50 in assay [1] is at least 100 µM; in assay [2], at most 2 µM.
In the same order, the values of `N#Cc1c(NC(=O)/C=C/c2ccccc2)sc2c1CCN(C(=O)OCCCc1ccncc1)C2` [Example 117, 3-Cyano-2-((E)-3-phenyl-allanoylamino)-4,7-dihydro-5H-thieno[2,3-c]pyridine-6-carboxylic acid 3-pyridin-4-yl-propyl ester] are at least 100 µM and at most 2 µM.
In the same order, the values of `CCOC(=O)N1CCc2c(sc(NC(=O)/C=C/c3ccc(C)cc3)c2C#N)C1` [Example 27, 3-Cyano-2-((E)-3-p-tolyl-allanoylamino)-4,7-dihydro-5H-thieno[2,3-c]pyridine-6-carboxylic acid ethyl ester] are over 100 µM and at most 2 µM.
In the same order, the values of `CCOC(=O)N1CCc2c(sc(NC(=O)/C=C/c3ccccc3OC(F)(F)F)c2C#N)C1` [Example 233, 3-Cyano-2-[(E)-3-(2-trifluoromethoxy-phenyl)-allanoylamino]-4,7-dihydro-5H-thieno[2,3-c]pyridine-6-carboxylic acid ethyl ester] are at least 50 µM and at most 0.5 µM.
On to `N#Cc1c(NC(=O)/C=C/c2cccnc2)sc2c1CCN(C(=O)CCc1cccnc1)C2` [Example 193, (E)-N-[3-Cyano-6-(3-pyridin-3-yl-propanoyl)-4,5,6,7-tetrahydro-thieno[2,3-c]pyridin-2-yl]-3-pyridin-3-yl-acrylamide], for which the figures for the IC50 in assay [1] and in assay [2] were at least 100 µM and at most 2 µM, respectively.
On to `CCOC(=O)N1CCc2c(sc(NC(=O)/C=C/c3ccco3)c2C#N)C1` [Example 10, 3-Cyano-2-((E)-3-furan-2-yl-allanoylamino)-4,7-dihydro-5H-thieno[2,3-c]pyridine-6-carboxylic acid ethyl ester], for which the IC50 in assay [1] is over 100 µM; in assay [2], at most 2 µM.
As to `COCC(=O)N1CCc2c(sc(NC(=O)/C=C/c3ccccc3)c2C#N)C1` [Example 181, (E)-N-[3-Cyano-6-(2-methoxy-ethanoyl)-4,5,6,7-tetrahydro-thieno[2,3-c]pyridin-2-yl]-3-phenyl-acrylamide], the values for the half-maximal inhibitory concentration (IC50) in assay [1] and in assay [2] were at least 100 µM and at most 2 µM, respectively.
In the same order, the values of `CC(=O)NCCOC(=O)N1CCc2c(sc(NC(=O)/C=C/c3ccccc3)c2C#N)C1` [Example 134, 3-Cyano-2-((E)-3-phenyl-allanoylamino)-4,7-dihydro-5H-thieno[2,3-c]pyridine-6-carboxylic acid 2-acetylamino-ethyl ester] are at least 100 µM and at most 2 µM.
The like results for `CCOC(=O)N1CCc2c(sc(NC(=O)/C=C/c3c(OC)cccc3OC)c2C#N)C1` [Example 108, 3-Cyano-2-[(E)-3-(2,6-dimethoxy-phenyl)-allanoylamino]-4,7-dihydro-5H-thieno[2,3-c]pyridine-6-carboxylic acid ethyl ester] were, in that order, at least 100 µM and at most 2 µM.
The like results for `CCOC(=O)N1CCc2c(sc(NC(=O)/C=C/c3ccccc3OC(C)=O)c2C#N)C1` [Example 69, 2-[(E)-3-(2-Acetoxy-phenyl)-allanoylamino]-3-cyano-4,7-dihydro-5H-thieno[2,3-c]pyridine-6-carboxylic acid ethyl ester] were, in that order, at least 50 µM and at most 0.5 µM.
On to `CCSC(=O)N1CCc2c(sc(NC(=O)/C=C/c3ccccc3)c2C#N)C1` [Example 35, 3-Cyano-2-((E)-3-phenyl-allanoylamino)-4,7-dihydro-5H-thieno[2,3-c]pyridine-6-carbothioic acid S-ethyl ester], for which the half-inhibitory concentration (IC50) in assay [1] was over 100 µM; in assay [2], at most 2 µM.
On to `N#Cc1c(NC(=O)/C=C/c2ccccc2)sc2c1CCN(C(=O)Cn1ccnc1)C2` [Example 188, (E)-N-[3-Cyano-6-(2-imidazol-1-yl-ethanoyl)-4,5,6,7-tetrahydro-thieno[2,3-c]pyridin-2-yl]-3-phenyl-acrylamide], for which the IC50 in assay [1] is at least 100 µM; in assay [2] it was at most 2 µM.
Regarding `CCOC(=O)N1CCc2c(sc(NC(=O)/C=C/c3cc(F)ccc3C)c2C#N)C1` [Example 79, 3-Cyano-2-[(E)-3-(5-fluoro-2-methyl-phenyl)-allanoylamino]-4,7-dihydro-5H-thieno[2,3-c]pyridine-6-carboxylic acid ethyl ester], the IC50 in assay [1] was at least 100 µM; in assay [2] it was at most 2 µM.
On to `CCOc1ccccc1/C=C/C(=O)Nc1sc2c(c1C#N)CCN(C(=O)OCc1ccccn1)C2` [Example 236, 3-Cyano-2-[(E)-3-(2-ethoxy-phenyl)-allanoylamino]-4,7-dihydro-5H-thieno[2,3-c]pyridin-6-carboxylic acid pyridin-2-ylmethyl ester], for which the IC50 in assay [1] was at least 100 µM; in assay [2], at most 2 µM.
The like results for `CCOC(=O)N1CCc2c(sc(NC(=O)/C=C/c3ccccc3C)c2C#N)C1` [Example 12, 3-Cyano-2-((E)-3-o-tolyl-allanoylamino)-4,7-dihydro-5H-thieno[2,3-c]pyridine-6-carboxylic acid ethyl ester] were, in that order, over 100 µM and at most 2 µM.
In the same order, the values of `CCOC(=O)N1CCc2c(sc(NC(=O)/C=C/c3ccc(-c4ccccc4)o3)c2C#N)C1` [Example 91, 3-Cyano-2-[(E)-3-(5-phenyl-furan-2-yl)-allanoylamino]-4,7-dihydro-5H-thieno[2,3-c]pyridine-6-carboxylic acid ethyl ester] are at least 100 µM and at most 2 µM.
In the case of `N#Cc1c(NC(=O)/C=C/c2ccccc2)sc2c1CCN(C(=O)OCCO)C2` [Example 135, 3-Cyano-2-((E)-3-phenyl-allanoylamino)-4,7-dihydro-5H-thieno[2,3-c]pyridine-6-carboxylic acid 2-hydroxy-ethyl ester], the IC50 in assay [1] is at least 100 µM; in assay [2] it was at most 2 µM.
Consider `COC(=O)c1ccc(OC(=O)N2CCc3c(sc(NC(=O)/C=C/c4cccnc4)c3C#N)C2)cc1` [Example 151, 3-Cyano-2-((E)-3-pyridin-3-yl-allanoylamino)-4,7-dihydro-5H-thieno[2,3-c]pyridine-6-carboxylic acid 4-methoxycarbonyl-phenyl ester], for which the IC50 in assay [1] was at least 100 µM; in assay [2] it was at most 2 µM.
In the same order, the values of `N#Cc1c(NC(=O)/C=C/c2ccccc2Cl)sc2c1CCN(C(=O)CCc1cccnc1)C2` [Example 215, (E)-3-(2-Chloro-phenyl)-N-[3-cyano-6-(3-pyridin-3-yl-propanoyl)-4,5,6,7-tetrahydro-thieno[2,3-c]pyridin-2-yl]-acrylamide] are at least 100 µM and at most 2 µM.
As for `CC(=O)OCCCC(=O)N1CCc2c(sc(NC(=O)/C=C/c3ccccc3)c2C#N)C1` [Example 191, Acetic acid 4-[3-cyano-2-((E)-3-phenyl-allanoylamino)-4,7-dihydro-5H-thieno[2,3-c]pyridin-6-yl]-4-oxo-butyl ester], the IC50 was at least 100 µM in assay [1] and at most 2 µM in assay [2].
In the same order, the values of `CCOC(=O)N1CCc2c(sc(NC(=O)/C=C/c3ccc(CC)o3)c2C#N)C1` [Example 77, 3-Cyano-2-[(E)-3-(5-ethyl-furan-2-yl)-allanoylamino]-4,7-dihydro-5H-thieno[2,3-c]pyridine-6-carboxylic acid ethyl ester] are at least 50 µM and at most 0.5 µM.
In the same order, the values of `CCOC(=O)N1CCc2c(sc(NC(=O)/C=C/c3ccc4c(c3Br)OCO4)c2C#N)C1` [Example 232, 2-[(E)-3-(4-Bromo-benzo[1,3]dioxol-5-yl)-allanoylamino]-3-cyano-4,7-dihydro-5H-thieno[2,3-c]pyridine-6-carboxylic acid ethyl ester] are at least 100 µM and at most 2 µM.
The like results for `COCC(=O)N1CCc2c(sc(NC(=O)/C=C/c3ccccc3OC)c2C#N)C1` [Example 210, (E)-N-[3-Cyano-6-(2-methoxy-ethanoyl)-4,5,6,7-tetrahydro-thieno[2,3-c]pyridin-2-yl]-3-(2-methoxy-phenyl)-acrylamide] were, in that order, at least 100 µM and at most 2 µM.
For the compound `COCCOCC(=O)N1CCc2c(sc(NC(=O)/C=C/c3cccnc3)c2C#N)C1` [Example 200, (E)-N-{3-Cyano-6-[2-(2-methoxy-ethoxy)-ethanoyl]-4,5,6,7-tetrahydro-thieno[2,3-c]pyridin-2-yl}-3-pyridin-3-yl-acrylamide], the IC50 in assay [1] was at least 100 µM; in assay [2], at most 2 µM.
In the same order, the values of `N#Cc1c(NC(=O)/C=C/c2ccco2)sc2c1CCN(C(=O)OCc1cccnc1)C2` [Example 242, 3-Cyano-2-((E)-3-furan-2-yl-allanoylamino)-4,7-dihydro-5H-thieno[2,3-c]pyridine-6-carboxylic acid pyridin-3-ylmethyl ester] are at least 100 µM and at most 2 µM.
In the same order, the values of `CCOC(=O)N1CCc2c(sc(NC(=O)/C=C/c3ccsc3)c2C#N)C1` [Example 9, 3-Cyano-2-((E)-3-thiophen-3-yl-allanoylamino)-4,7-dihydro-5H-thieno[2,3-c]pyridine-6-carboxylic acid ethyl ester] are over 100 µM and at most 2 µM.
